Test results as given in patent US5668131A, “Substituted aminoalkylaminopyridines” (BYK Gulden Lomberg Chemische Fabrik GmbH, priority 1993, dated 1997).
Where a name gives a salt, the structure may show the parent alone.

Test system: Helicobacter pylori
Assay: Activity on Helicobacter pylori (MIC, Columbia agar, 4 days growth period)
Assay type: cell-based
Conditions: Columbia agar (Oxoid), growth period of 4 days; for MIC: Helicobacter pylori, 96 h

Structure (SMILES)	MIC [µg/mL]	MIC-Value [µg/mL]
Cc1c(N(C)CCN(C)Cc2ccco2)ccnc1CSc1nc2ccccc2[nH]1.Cl.Cl.Cl [Compound 4, 2-{3-Methyl-4-{N-{2-[N-(2-furfuryl)-N-methylamino]-ethyl}-N-methylamino}-2-pyridyl}-methylthio-1H-benzimidazole trihydrochloride]		< 1
COc1cc2c(cc1OC)CN(CCN(C)c1ccnc(CSc3nc4ccccc4[nH]3)c1Cl)CC2 [Compound 14, 2-{3-Chloro-4-{N-[2-(6,7-dimethoxy-1,2,3,4-tetrahydro-2-isoquinolinyl)ethyl]-N-methylamino}-2-pyridyl}-methylthio-1H-benzimidazole]	< 1	
CN(CCN1CCN(c2ccccc2)CC1)c1ccnc(CSc2nc3ccccc3[nH]2)c1Cl [Compound 15, 2-{3-Chloro-4-{N-[2-(4-phenylpiperazino)-ethyl]-N-methylamino}-2-pyridyl}-methylthio-1H-benzimidazole hydrochloride]	< 1	
CN(CCN1CCN(Cc2ccccc2)CC1)c1ccnc(CSc2nc3ccccc3[nH]2)c1Cl [Compound 16, 2-{3-Chloro-4-{N-[2-(4-benzylpiperazino)-ethyl]-N-methylamino}-2-pyridyl}-methylthio-1H-benzimidazole trihydrochloride]	< 1	
COc1ccccc1N1CCN(CCN(C)c2ccnc(CSc3nc4ccccc4[nH]3)c2Cl)CC1 [Compound 17, 2-{3-Chloro-4-{N-[2-(4-(2-methoxyphenyl)-piperazino)-ethyl]-N-methylamino}-2-pyridyl}-methylthio-1H-benzimidazole trihydrochloride]	< 1	
CN(CCCN1CCc2ccccc2C1)c1ccnc(CSc2nc3ccccc3[nH]2)c1Cl [Compound 18, 2-{3-Chloro-4-{N-[3-(1,2,3,4-tetrahydro-2-isoquinolinyl)-propyl]-N-methylamino}-2-pyridyl}-methylthio-1H-benzimidazole trihydrochloride]	< 1	
CN(CCCN(C)c1ccnc(CSc2nc3ccccc3[nH]2)c1Cl)Cc1ccccc1 [Compound 19, 2-{3-Chloro-4-{N-[3-(N-benzyl-N-methylamino)propyl]-N-methylamino}-2-pyridyl}-methylthio-1H-benzimidazole trihydrochloride]	< 1	
COc1cc2c(cc1OC)CN(CCCN(C)c1ccnc(CSc3nc4ccccc4[nH]3)c1Cl)CC2 [Compound 20, 2-{3-Chloro-4-{N-[3-(6,7-dimethoxy-1,2,3,4-tetrahydro-2-isoquinolinyl)-propyl]-N-methylamino}-2-pyridyl}-methylthio-1H-benzimidazole trihydrochloride]	< 1	
CN(CCCN1CCC(Cc2ccccc2)CC1)c1ccnc(CSc2nc3ccccc3[nH]2)c1Cl [Compound 21, 2-{3-Chloro-4-{N-[3-(4-benzyl-piperidino)-propyl]-N-methylamino}-2-pyridyl}-methylthio-1H-benzimidazole trihydrochloride]	< 1	

Second part, led by results:

MIC [µg/mL]	Structure (SMILES)	MIC-Value [µg/mL]
< 1	CCN(CCN(C)c1ccnc(CSc2nc3ccccc3[nH]2)c1Cl)Cc1ccccc1 [Compound 1, 2-{3-Chloro-4-{N-[2-(N-benzyl-N-ethylamino)ethyl]-N-methylamino}-2-pyridyl)-methylthio-1H-benzimidazole trihydrochloride]	
< 1	CN(CCN1CCc2ccccc2C1)c1ccnc(CSc2nc3ccccc3[nH]2)c1Cl [Compound 2, 2-{3-Chloro-4-{N-[2-(1,2,3,4-tetrahydro-2-isoquinolinyl)ethyl]-N-methylamino}-2-pyridyl}-methylthio-1H-benzimidazole trihydrochloride]	
< 1	CN(CCN1CCc2ccccc2C1)c1ccnc(CSc2nc3ncccc3[nH]2)c1Cl [Compound 5, 2-{3-Chloro-4-{N-[2-(1,2,3,4-tetrahydro-2-isoquinolinyl)ethyl]-N-methylamino)-2-pyridyl}-methylthio-1H-imidazo[5,4-b]pyridine]	
< 1	CN(CCN(C)c1ccnc(CSc2nc3ccccc3[nH]2)c1Cl)Cc1ccccc1 [Compound 6, 2-{3-Chloro-4-{N-[2-(N-benzyl-N-methylamino)-ethyl]-N-methylamino}-2-pyridyl}-methylthio-1H-benzimidazole trihydrochloride]	
< 1	CN(CCc1ccccc1)CCN(C)c1ccnc(CSc2nc3ccccc3[nH]2)c1Cl [Compound 9, 2-{3-Chloro-4-{N-[2-(N-methyl-N-phenethylamino)-ethyl]-N-methylamino}-2-pyridyl}-methylthio-1H-benzimidazole trihydrochloride]	
< 1	CN(CCN(C)c1ccnc(CSc2nc3ccccc3[nH]2)c1Cl)Cc1ccco1 [Compound 10, 2-{3-Chloro-4-{N-[2-(N-furfuryl-N-methylamino)ethyl]-N-methylamino}-2-pyridyl}-methylthio-1H-benzimidazole trihydrochloride]	
< 1	CN(CCN1CCC(c2ccccc2)CC1)c1ccnc(CSc2nc3ccccc3[nH]2)c1Cl [Compound 11, 2-{3-Chloro-4-{N-[2-(4-phenyl-piperidino)-ethyl]-N-methylamino}-2-pyridyl}-methylthio-1H-benzimidazole]	
< 1	CN(CCN1CCC(Cc2ccccc2)CC1)c1ccnc(CSc2nc3ccccc3[nH]2)c1Cl [Compound 12, 2-{3-Chloro-4-{N-[2-[4-benzyl-piperidino)-ethyl]-N-methylamino}-2-pyridyl}-methylthio-1H-benzimidazole]	
< 1	CN(CCN1CCCCC1)c1ccnc(CSc2nc3ccccc3[nH]2)c1Cl [Compound 13, 2-{3-Chloro-4-[N-(2-piperidinoethyl)-N-methylamino]-2-pyridyl}-methylthio-1H-benzimidazole]	
